The text below walks through data of patent US6492128B1, “Drug screen targeting lipoprotein-membrane anchorage” (Ramot University Authority for Applied Research & …, priority 1997, dated 2002).

Some results are limits rather than exact numbers.

The subject of one series is EJ cells. In words: Inhibition of EJ cells growth. Format: cell-based, rat.
In series [1] the target is T1, oncogenic Ras in isolated EJ cell membranes (Homo sapiens, UniProt P01112, G12V).
T1 construct: expressed in transfected cells; host or cells: Rat1 fibroblasts transformed with Ha-Ras (EJ cells)
As to the kind of experiment: Cell-free assay: dislodging of Ras from isolated EJ cell membranes. Type of series: biochemical, rat. The note with it: for Dislodging of Ras (% of control) in a cell free system (10 μM drug): isolated EJ cell membranes, Ras in pellet; for dislodging of Ras from isolated membrane: 10 μM. As to the method: The cell-free assay is utilized in these next experiments; i.e. the effect of FTS on Ras in isolated membranes was investigated. Briefly, we used EJ cell membranes (total particulate fraction) prepared in homogenization buffer (10 mM Tris-HCl, pH 8.5, 0.32 M sucrose) with protease inhibitors. The membranes were stored in aliquot at −70° C. and thawed prior to use. In a standard assay, membranes containing 15 μg of protein are incubated in a total volume of 100 μl of homogenization buffer with or without drug for 60 min at 37° C. The drugs are prepared freshly in 100% DMSO, and diluted with 50 mM Tris-HCl pH 8.5 to yield 5× drug concentration in 10% DMSO. It is important to prepare these solutions at room temperature, otherwise the drugs may precipitate. The drug solutions (20 μl) are pipetted into the assay tubes, the membrane/buffer mixtures (80 μl) are quickly added, the tubes are gently mixed, and the tubes are transferred to a 37° C. shaking water bath. The reactions are stopped by addition of 900 μl of cold homogenization buffer (without sucrose) containing 10 μg BSA. Following a 5 min incubation at room temperature, the membranes are pelleted by centrifugation in a benchtop microfuge (14,000 rpm). The supernatants are removed and the pellets are subjected to mini-SDS-PAGE followed by Immunoblotting (pan anti-Ras antibodies) and ECL assays. These assays are detailed infra. It is considered preferable to perform the reactions at 25-37° C. and to use relatively small amounts of membrane protein in the assay. Another preference is to dilute the membranes in a solution containing BSA at the end of the reaction period.

Series [2] is described as follows: Toxicity / cytotoxicity of FTS.
For series [3] the following is noted: FTS 5-50 μM; cited from earlier work.
Series [4] deals with T2, oncogenic Ras in EJ cells (Homo sapiens, UniProt P01112, G12V).
T2 construct: expressed in transfected cells; host or cells: Rat1 fibroblasts transformed with Ha-Ras (EJ cells)
In words: Dislodging of Ras from membranes in intact EJ cells (particulate/cytosolic fractions, immunoblot). Format: cell-based, rat. The procedure:
Ha-Ras transformed Rat1 cells (EJ cells) were plated at a density of 4×10^6 cells/10 cm dish. After 3 hr the cells were treated for 15 hr (dose response) or for 2, 6, 12, or 24 hr (time course) with FTS (0-50 μM, dose response) or (25 μM, time course) or (0.1% DMSO, control). The cells were then detached from the dishes and washed in phosphate-buffered saline (PBS). All the subsequent procedures were carried out at 4° C. The cell pellets were homogenized in […] of homogenization buffer 20 mM Tris-HCl, pH=7.6) leupeptine (5 μg/ml), pepstatine (5 μg/ml), benzamidine (1 μM), phenylmethyl-sulphonyl fluoride (1 mM), aprotinine (5 units/ml), and MgCI2 (10 mM). Total cell membranes (P100) and cytosol (S100) were obtained by a 100,000×g centrifugation step (30 min). Following resuspension of the P100 in 750 μl of homogenization buffer, both S100 and P100 received 75 μl of 10×immunoprecipitation buffer (100 mM Tris-HCl, pH=7.5, 1.5 M NaCl, 10% Triton X-100). Samples were frozen for 1 hr at −70° C. and then thawed. Insoluble material was removed by a 10 min 10,000×g spin and the clear supernatant was used for immunoprecipitation. Samples containing 500 μg protein of P100 and the equivalent amount of S100 protein, were incubated for 12 hr with 2 μg of Y13-259 antibodies coupled to agarose bends (Oncogene Science). The beads were then precipitated and washed four times with 1 ml of immunoprecipitation buffer, twice with 1 ml of 20 mM Tris-HCl, pH=7.6, and then resuspended in 20 μl of SDS-sample buffer. Proteins were then separated by 12.5% SDS-PAGE (mini gels) and blotted onto nitrocellulose paper. The paper was blocked with 10% skimmed milk in tris-buffered saline and then incubated for 7 hr with rabbit anti-Ras serum diluted 1:1000 with tris buffered saline containing 10 mg/ml bovine serum albumin and 0.05% tween-20 (anti-Ras antiserum was prepared by immunizing rabbits with recombinant human-Ha-Ras (Marom et al.). Immunoblots were then incubated for 1 hr with 1:5000 dilution of goat anti-rabbit IgG-horseradish peroxidase (HRP) conjugate (Sigma) and developed by exposing to ECL.
Here, EJ cells were plated at a density of 4×10^6 cells/10 cm dish. The plated cells were cultured for 3 hours and then received new media containing 0.1% DMSO with or without 25 μM FTS. The cells were further cultured for 2, 4, 12, or 24 hours before harvesting and fractionation into particulate and cytosolic fractions. Ras proteins were immunoprecipitated from the fractions, subjected to SDS-PAGE, immunoblotted and developed with ECL as described in the methods, supra. The density of the bands produced from the particulate fraction (FIG. 3A) and the cytosolic fraction (FIG. 3B) was measured with a scanning densitometer. The data obtained from the densitometric analysis are presented in FIG. 3C as the ratio of values of test (FTS treated) over control (DMSO only) cells. The mean values of three separate experiments are shown.
Referring to FIGS. 4A and 4B, the effect of FTS in dislodging Ras from EJ cell membranes was investigated for dose dependence. Here, Ras protein concentration was determined in the particulate fraction of EJ cells that were exposed to the indicated concentrations of FTS (0-50 μM) and AFC (50 μM) for 15 hours as detailed for FIG. 3, supra. The densitometric analysis of the immunoblot bands shown in FIG. 4A are presented in FIG. 4B as mean % of control of three experiments.
(In general: A western blot detects proteins with antibodies after separation by electrophoresis.)

For the next series, the system named is normal Ras in Rat1 cells. In words: Ras (total and particulate) in Rat1 cells. Format: cell-based, rat. As to the method:
In experiments where the total amount of Ras was estimated, the cells were homogenized as detailed above and samples of the total cell-homogenate (15 μg protein) were loaded onto the gel. For immunoblotting, we have also used the pan-Ras Ab (Calbiochem) at a 1:2000 dilution, and anti-mouse IgG-HRP at a 1:7500 dilution. To develop, the blots were exposed to ECL. The same immunoblotting procedure was also used in the cell-free system experiments. The effect of FTS on total Ras in Rat1 cells (Rat1 cells have normal rather than oncogenic Ras) was also examined using the same procedures and conditions as that used for EJ cells in FIGS. 5A & 5B. […] However, dislodging normal Ras in Rat1 cells required 50 μM FTS whereas the oncogenic Ras found in EJ cell is dislodged at lower concentrations of the drug (FIG. 5A). Thus, FTS may have some selectivity towards the activated forms of Ras. This may account for the fact that FTS is not toxic at doses that inhibit the growth of Ras dependent cells and tumors (see toxicology section below.)

In series [5] the test system is v-raf or T-antigen transformed cells. The note with it: cited from earlier work.
Series [6] relates to G protein β (Gβ) in EJ cell membranes. As to the kind of experiment: Immunoblotting of Gβ in EJ cell membranes. The note with it: same conditions as for Ras detection. Type of series: cell-based, rat. As to the method: The level of G protein β (Gβ) was determined in membranes of EJ cells that were grown in the absence and in the presence of FTS in the same conditions that were used for Ras detection. A sample of 25 μg membrane proteins were separated by SDS-PAGE (12.5%), and blotted to nitrocellulose paper. Immunoblots were performed by using rabbit anti Gβ antibodies (dilution of 1:1000) as a first antibody and goat anti rabbit IgG HRP (Sigma) as a second antibody (dilution of 1:5000). To develop, the blots were exposed to ECL.

The subject of series [7] is total oncogenic Ras in EJ cells. As to the kind of experiment: Total cellular Ras in EJ cells (immunoblot of total homogenate). Type of series: cell-based, rat. The note with it: 15 hours, total cell homogenate; read-out: EC50 for decrease in the total amount of Ras in EJ cells. As to the method: In experiments where the total amount of Ras was estimated, the cells were homogenized as detailed above and samples of the total cell-homogenate (15 μg protein) were loaded onto the gel. For immunoblotting, we have also used the pan-Ras Ab (Calbiochem) at a 1:2000 dilution, and anti-mouse IgG-HRP at a 1:7500 dilution. To develop, the blots were exposed to ECL. The same immunoblotting procedure was also used in the cell-free system experiments. If Ras is degraded after it is dislodged, total cellular Ras should fall after FTS treatment. To investigate this, EJ cells were incubated for 15 hours, with various concentrations of FTS as detailed in FIG. 3, supra, then homogenized and total cell Ras measured by immunoblot assay. FTS caused a dose dependent decrease in the total amount of Ras in treated EJ cells. Densitometric analysis of data, such as that of FIG. 5A, is presented in FIG. 5B as the mean percent of control of 3 experiments. The EC5O was 15 μM (FIG. 5B), which is similar to that determined for the effect of FTS on particulate Ras.

Series [8] deals with Erb B2 and Ha-Ras-transformed cells. The note with it: cited from earlier work.
For another series, the system named is Ras. The note with it: cited from earlier work.

For the compound `CC(C)=CCC/C(C)=C/CC/C(C)=C/CSc1c(Cl)cccc1C(=O)O` [3-CI-FTS], in the series on EJ cells (EJ cells), the EC50 – broadly, the concentration giving half of the maximal effect – is more than 50 µM. In series [1], the “Dislodging of Ras (% of control) in a cell free system (10 μM drug)” value is on record as 109 % of control. The “dislodging of Ras from isolated membrane” value in series [1] (cell free) was “did not dislodge Ras”.

In the case of `CC(C)=CCCC(C)=CCCC(C)=CCSc1cc(Cl)ccc1C(=O)O` [4-Cl-FTS], a half-maximal response in the series with EJ cells (EJ cells) (EC50) required 28 ± 3 µM. Moreover, the “Dislodging of Ras (% of control) in a cell free system (10 μM drug)” value in series [1] is listed as 85 % of control.

In the series on EJ cells (EJ cells), `CC(C)=CCC/C(C)=C/CC/C(C)=C/CSc1ccc(Cl)cc1C(=O)O` [5-Cl-FTS] returned a concentration for a half-maximal effect (EC50) of 8.5 ± 2.4 µM. In addition, the “Dislodging of Ras (% of control) in a cell free system (10 μM drug)” value in series [1] is 87 % of control.

For the compound `COC(=O)c1ccccc1SCC=C(C)CCC=C(C)CCC=C(C)C` [FMTS, carboxymethyl FTS], in the series with EJ cells (EJ cells), the “Inhibition of EJ cells Growth EC50 (μM)” value is “Not active at 50 μM”. Moreover, the “Dislodging of Ras (% of control) in a cell free system (10 μM drug)” value in series [1] is listed as 110 % of control. The “dislodging of Ras from isolated membrane” value in [1] (cell free) was “did not dislodge Ras”.

As for `CC(C)=CCCC(C)=CCCC(C)=CCSc1ccccc1C(=O)O` [FTS, Farnesylthiosalicylic acid], the “toxicity at doses that inhibit the growth of Ras dependent cells and tumors” value in [2] was “not toxic”. Further, the “cytotoxicity at growth-inhibiting concentrations” value in series [3] is given as “without producing cytotoxicity”. The EC50 in the series with EJ cells (Rattus norvegicus, EJ) is 7.5 ± 3.7 µM; in series [4] (intact EJ cells, 15 hours, 0-50 μM, read-out: EC50 for dislodging Ras from EJ cell membranes (particulate Ras)), approximately 10 µM; in series [7], 15 µM; in series [1] (cell free, 60 min at 37° C.), 10 to 15 µM. The “cytosolic Ras after exposure” value in series [4] (FTS 25 μM, 2 to 6 hours after exposure, transient) is listed as “significant increase in cytosolic Ras”. Further, the “decrease in the amount of particulate Ras versus control levels” value in series [4] (FTS 25 μM, after 24 hours, EJ cells, densitometry, 3 experiments) is reported as 80%. In series [4] (cell membranes), the “concentration range that will produce maximal displacement of Ras” value fell in the range of 10 to 50 µM. Moreover, in series [4] (cell membranes), the “concentrations required to dislodge Ras from cell membranes” value is less than 25 µM. Also, the “concentration required for dislodging normal Ras in Rat1 cells” value with normal Ras in Rat1 cells (particulate Ras, Rat1 cells) came to 50 µM. Also, the “effect on total Ras in Rat1 cells” value in the series with normal Ras in Rat1 cells (same conditions as EJ cells, dose response shifted to the right) was “significant decrease in Ras”. The “effect on growth of v-raf or T-antigen transformed cells” value in series [5] is recorded as “does not affect the growth”. In addition, in series [6], the “amount of Gβ associated with EJ cell membranes” value was “did not reduce the amount of Gβ”. The “Dislodging of Ras (% of control) in a cell free system (10 μM drug)” value in [1] is listed as 56 % of control. Further, the “concentration range of dose-dependent growth inhibition” value in [8] is listed as 1-25 μm. Also, the “inhibition of farnesylation or methylation of Ras in intact cells” value with Ras is recorded as “does not inhibit farnesylation or methylation of Ras”.

For `CC(C)=CCC/C(C)=C/CSc1ccccc1C(=O)O` [GTS, geranyl thiosalicylic acid], the “Inhibition of EJ cells Growth EC50 (μM)” value with EJ cells (EJ cells) was “Not active at 50 μM”. In addition, the “Dislodging of Ras (% of control) in a cell free system (10 μM drug)” value in series [1] is on record as 100 % of control. Moreover, in series [1] (cell free), the “dislodging of Ras from isolated membrane” value was “did not dislodge Ras”.
